# Experimental data reported in US11702469B2, “Recombinant EGFL7, EGFL7 antibodies, and uses thereof” (Ohio State Innovation Foundation, priority 2017, dated 2023).
# Tests used:
# [1] = system: HES1; test: DLL4-Fc coated plate NOTCH activation (HES1 qRT-PCR), THP-1; format: cell-based, human
# Description: (§1) FIG. 24A-24G. EGFL7 prevents activation of NOTCH signaling in AML cells. (FIG. 24A) Overview of experiments using DLL4-FC and IgG-FC control coated plates to induce NOTCH activation. (FIG. 24B) THP-1 cells were pre-treated with 10 μM γ-secretase inhibitor (AVA), 100 μg/ml anti-EGFL7 antibody or 0.25 μM rEGFL7 for 30 min, then transferred to IgG-Fc or DLL4-Fc coated plates. After 4 h of incubation total RNA from THP-1 cells was extracted for qRT-PCR analysis of HES1 with β-ACTIN as internal control. ^###P<0.001 DLL4-FC vs IgG-FC; ***P<0.001 DLL4+AVA, DLL4+rEGFL7, and DLL4+anti-EGFL7 vs DLL4-FC. (FIG. 24C) Primary AML blasts were pretreated with 10 μM γ-secretase inhibitor (AVA), 100 μg/ml anti-EGFL7 antibody or 0.25 μM rEGFL7 for 30 min, then transferred to IgG-Fc or DLL4-Fc coated plates. After 4 h of incubation, total RNA was extracted for RT-PCR analysis of HES1 mRNA with β-ACTIN as internal control. ^###P<0.001 DLL4-Fc vs IgG-Fc; *P<0.05, ***P<0.001 vs DLL4 Fc. THP-1 cells were treated with the indicated concentration of anti-EGFL7 (@E7) then assessed for apoptosis using (FIG. 24D) AnnexinV+ staining and FACS; *P<0.05 (FIG. 24E) Immuno-blotting for PARP1 and Casp3 cleavage. (FIG. 24F) Cell differentiation was assessed by CD11B and CD14 staining 96-hours post anti-EGFL7 treatments; *P<0.05. (FIG. 24G) To determine whether activation of NOTCH by DLL4-Fc could be accentuated by anti-EGFL7 treatment, THP-1 cells were first treated with anti-EGFL7 (100 μg/ml) and then cultured on DLL4-FC or IgG-Fc coated plates and then assessed for apoptosis using AnnexinV+ staining and FACS. *P<0.05 DLL4-Fc and anti-EGFL7; vs DLL4-FC+anti-EGFL7.
# Total RNA was extracted using Trizol reagent (Invitrogen, Carlsbad, Calif., USA). cDNA was synthesized using SuperScript III reagents (Invitrogen) according to the manufacturer's instruction. Quantitative Real-Time RT-PCR was performed using commercially available TaqMan Gene Expression Assay primers and the 7900HT Fast Real-Time PCR System (Applied Biosystems, Foster City, Calif., USA). […]
# [2] = system: FLT3-ITD AML; conditions: phase I/II study in AML; cited from earlier work
# [3] = system: HES1; test: OP9-DLL1 co-culture NOTCH activation (HES1 RT-PCR), THP-1; format: cell-based, human; conditions: THP-1 co-cultured with OP9-DLL1
# Excerpt: FIG. 27. EGFL7 prevents NOTCH ligand inactivation of Notch signaling in AML cells. (A) Overview of experiments involving co-culture of THP-1 cells with mouse stromal cells overexpressing DLL1. (B) Total RNA was extracted for RT-PCR analysis of HES1 with β-ACTIN as internal control. ^###P<0.001 OP9-DLL1 vs OP9; *P<0.05, **P<0.01 vs untreated control.
# Total RNA was extracted using Trizol reagent (Invitrogen, Carlsbad, Calif., USA). cDNA was synthesized using SuperScript III reagents (Invitrogen) according to the manufacturer's instruction. Quantitative Real-Time RT-PCR was performed using commercially available TaqMan Gene Expression Assay primers and the 7900HT Fast Real-Time PCR System (Applied Biosystems, Foster City, Calif., USA). The expression levels of target genes were normalized to β-ACTIN. Relative expression was calculated by using the comparative 2^−ΔΔct method.
# It was next determined whether EGFL7 is inhibiting NOTCH signaling in AML cells by competing with canonical NOTCH ligand binding. To perform these experiments, THP-1 cells were cultured on DLL4-Fc and IgG-Fc (control) coated plates to activate NOTCH signaling. The effect of rEGFL7 and anti-EGFL7 on this DLL4-Fc NOTCH activation was also tested (FIG. 24A). […] For these experiments, co-culture was performed of THP-1 cells with stromal cells (OP9) overexpressing membrane bound DLL1 (OP9-DLL1)^25 (FIG. 27A).
# [4] = system: NOTCH signaling; test: Gamma-secretase inhibitor on Parsatuzumab induced NOTCH activation, primary blasts; format: cell-based, human
# Description: as §1, with “(FIG. 24C) Primary AML blasts were pretreated with 10 μM γ-secretase inhibitor (AVA), 100 μg/ml anti-EGFL7 antibody or 0.25 μM rEGFL7 for 30 min, then transferred to IgG-Fc or DLL4-Fc coated plates. After 4 h of incubation, total RNA was extracted for RT-PCR analysis of HES1 mRNA with β-ACTIN as internal control. ^###P<0.001 DLL4-Fc vs IgG-Fc; *P<0.05, ***P<0.001 vs DLL4 Fc.” left out, “DLL4-FC+anti-EGFL7. […]” for “DLL4-FC+anti-EGFL7.”
# [5] = system: acute myeloid leukemia; conditions: PSC-833 arm with cytarabine, daunorubicin and etoposide; cited from earlier work
compound,measurement,setting,value
"DLL4-Fc: Recombinant human DLL4 (Fc chimera, ab108557), canonical NOTCH ligand",NOTCH activation assessed by HES1 expression,"[1]; DLL4-Fc vs IgG-Fc coated plates, 4 h",increases in NOTCH activation
CCc1nc(C(N)=O)c(Nc2ccc(N3CCC(N4CCN(C)CC4)CC3)c(OC)c2)nc1NC1CCOCC1 [Gilteritinib],tolerability and safety,[2],"tolerable, safe"
"NC(=O)[C@@H](CCC(F)(F)F)N(Cc1ccc(-c2ncon2)cc1F)S(=O)(=O)c1ccc(Cl)cc1 [AVA, Avagacestat]",DLL4-Fc-mediated NOTCH activation (HES1),"[1]; pre-treated 30 min: 10 μM AVA, 100 μg/ml anti-EGFL7 or 0.25 μM rEGFL7, then 4 h, vs DLL4-FC",significantly reduced
same,DLL1-mediated NOTCH activation (HES1),[3],significantly reduced
same,Parsatuzumab induced NOTCH activation,[4],blocked
"C/C=C/C[C@@H](C)C(=O)[C@H]1C(=O)N[C@@H](C(C)C)C(=O)N(C)CC(=O)N(C)[C@@H](CC(C)C)C(=O)N[C@@H](C(C)C)C(=O)N(C)[C@@H](CC(C)C)C(=O)N[C@@H](C)C(=O)N[C@H](C)C(=O)N(C)[C@@H](CC(C)C)C(=O)N(C)[C@@H](CC(C)C)C(=O)N(C)[C@@H](C(C)C)C(=O)N1C [PSC-833, valspodar]",early deaths,[5],excessive early deaths
